Laboratory results published in ChEMBL document CHEMBL1144965, “A series of 2(Z)-2-benzylidene-6,7-dihydroxybenzofuran-3[2H]-ones as inhibitors of chorismate synthase” (Bioorg Med Chem Lett, 2003).

Key:
[1] = target: T1, Chorismate synthase (Streptococcus pneumoniae serotype 4 (strain ATCC BAA-334 / TIGR4), UniProt P0A2Y6); assay: Inhibitory concentration against Streptococcus pneumoniae chorismate synthase
T1 sequence (P0A2Y6 whole entry): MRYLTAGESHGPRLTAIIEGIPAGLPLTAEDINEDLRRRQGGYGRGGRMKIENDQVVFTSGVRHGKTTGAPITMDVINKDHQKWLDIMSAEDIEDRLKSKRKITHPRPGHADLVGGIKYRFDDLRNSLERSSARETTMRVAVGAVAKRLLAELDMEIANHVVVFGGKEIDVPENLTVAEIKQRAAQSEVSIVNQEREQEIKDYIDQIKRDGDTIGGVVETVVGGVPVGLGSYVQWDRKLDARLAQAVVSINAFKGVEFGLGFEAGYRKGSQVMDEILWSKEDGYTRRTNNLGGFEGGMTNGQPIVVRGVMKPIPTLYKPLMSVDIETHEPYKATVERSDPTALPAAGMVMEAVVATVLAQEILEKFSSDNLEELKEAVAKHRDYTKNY

[2] = target: Chorismate synthase (Streptococcus pneumoniae); assay: Competitive inhibitory activity with respect to EPSP (5-enolpyruvyl-shikimate- 3-phosphate) at chorismate synthase
[3] = (§1) Non-competitive inhibitory activity with respect to cofactor FMN
[4] = target: T1, Chorismate synthase; assay: Inhibitory concentration against Streptococcus pneumoniae chorismate synthase; Not active
[5] = as §1; remark: listed apart in the source
[6] = substrate: CCN(CC)c1ccc(/C=C2/Oc3c(ccc(O)c3O)C2=O)cc1
Description: Michaelis-Menten constant for EPSP (5-enolpyruvyl-shikimate- 3-phosphate) synthase was evaluated

O=C(O)c1ccccc1/C=C1/Oc2c(ccc(O)c2O)C1=O
IC50 [1]: 10700 nM

O=C(O)c1ccc(/C=C2/Oc3c(ccc(O)c3O)C2=O)cc1
IC50 [1]: 24000 nM

CCCOc1ccc(/C=C2/Oc3c(ccc(O)c3O)C2=O)c(O)c1
IC50 [1]: 510 nM

CCN(CC)c1ccc(/C=C2/Oc3c(ccc(O)c3O)C2=O)c(O)c1
IC50 [1]: 5000 nM

COc1ccc(/C=C2/Oc3c(ccc(O)c3O)C2=O)c(O)c1
IC50 [1]: 700 nM
Ki [2]: 100 nM
Ki [3]: 1.4 µM

O=C1/C(=C\c2ccc(N3CCOCC3)cc2)Oc2c1ccc(O)c2O
IC50 [1]: > 50000 nM

N#Cc1ccc(/C=C2/Oc3c(ccc(O)c3O)C2=O)cc1
IC50 [4]: Not Active

O=C1/C(=C\c2ccc(C(F)(F)F)cc2)Oc2c1ccc(O)c2O
IC50 [1]: 7000 nM

CCN(CC)c1ccc(/C=C2/Oc3c(ccc(O)c3O)C2=O)cc1
Ki [5]: 1700 nM

O=C1/C(=C\c2ccc(F)cc2)Oc2c1ccc(O)c2O
IC50 [1]: > 60000 nM

COc1ccccc1/C=C1/Oc2c(ccc(O)c2O)C1=O
IC50 [1]: > 60000 nM

O=C1/C(=C\c2ccc(OCCCCO)cc2O)Oc2c1ccc(O)c2O
IC50 [1]: 860 nM

CCOC(=O)CCCOc1ccc(/C=C2/Oc3c(ccc(O)c3O)C2=O)c(O)c1
IC50 [1]: 650 nM

O=C1/C(=C\c2ccccc2Cl)Oc2c1ccc(O)c2O
IC50 [1]: 5200 nM

O=C(O)CCCOc1ccc(/C=C2/Oc3c(ccc(O)c3O)C2=O)c(O)c1
IC50 [1]: 1100 nM

CC(C)COc1ccc(/C=C2/Oc3c(ccc(O)c3O)C2=O)c(O)c1
IC50 [1]: 580 nM

CCN(CCO)c1ccc(/C=C2/Oc3c(ccc(O)c3O)C2=O)c(C)c1
IC50 [1]: 3400 nM

CCCCOc1ccc(/C=C2/Oc3c(ccc(O)c3O)C2=O)c(O)c1
IC50 [1]: 450 nM

CCCCOc1ccc(/C=C2/Oc3c(ccc(O)c3O)C2=O)cc1
IC50 [1]: 1500 nM

CC(C)Oc1ccc(/C=C2/Oc3c(ccc(O)c3O)C2=O)c(O)c1
IC50 [1]: 1000 nM

COc1cccc(/C=C2/Oc3c(ccc(O)c3O)C2=O)c1O
IC50 [1]: 1700 nM

O=C1/C(=C\c2ccccc2[N+](=O)[O-])Oc2c1ccc(O)c2O
IC50 [1]: 2000 nM

CCOc1ccc(/C=C2/Oc3c(ccc(O)c3O)C2=O)cc1
IC50 [1]: 5800 nM

COc1ccc(/C=C2/Oc3c(ccc(O)c3O)C2=O)cc1
IC50 [1]: 14300 nM

CCCCCOc1ccc(/C=C2/Oc3c(ccc(O)c3O)C2=O)c(O)c1
IC50 [1]: 220 nM

CN(C)c1ccc(/C=C2/Oc3c(ccc(O)c3O)C2=O)cc1
IC50 [1]: 25900 nM

O=C1/C(=C\c2ccc([N+](=O)[O-])cc2)Oc2c1ccc(O)c2O
IC50 [1]: 4800 nM

O=C1/C(=C\c2ccc(OCc3ccccc3)cc2O)Oc2c1ccc(O)c2O
IC50 [1]: 1000 nM

O=C1/C(=C\c2ccc(OCCCCCCO)cc2O)Oc2c1ccc(O)c2O
IC50 [1]: 1600 nM

O=C1/C(=C\c2ccc(N3CCCC3)cc2)Oc2c1ccc(O)c2O
IC50 [1]: 5500 nM

O=C(O)COc1ccc(/C=C2/Oc3c(ccc(O)c3O)C2=O)c(O)c1
IC50 [1]: 2600 nM

O=C1/C(=C\c2ccc(OCCCO)cc2O)Oc2c1ccc(O)c2O
IC50 [1]: 2500 nM

O=C1/C(=C\c2ccccc2)Oc2c1ccc(O)c2O
IC50 [1]: 3500 nM

Cc1ccccc1/C=C1/Oc2c(ccc(O)c2O)C1=O
IC50 [1]: 4000 nM

N#CCCCOc1ccc(/C=C2/Oc3c(ccc(O)c3O)C2=O)c(O)c1
IC50 [1]: 1100 nM

O=C1/C(=C\c2ccccc2C(F)(F)F)Oc2c1ccc(O)c2O
IC50 [1]: 17300 nM

Cc1ccc(/C=C2/Oc3c(ccc(O)c3O)C2=O)cc1
IC50 [4]: Not Active

CCOC(=O)COc1ccc(/C=C2/Oc3c(ccc(O)c3O)C2=O)c(O)c1
IC50 [1]: 10300 nM

O=C1/C(=C\c2ccccc2O)Oc2c1ccc(O)c2O
IC50 [1]: 800 nM

O=C1/C(=C\c2ccc(-n3ccnc3)cc2)Oc2c1ccc(O)c2O
IC50 [1]: 5100 nM

CCCCCCOc1ccc(/C=C2/Oc3c(ccc(O)c3O)C2=O)c(O)c1
IC50 [1]: 320 nM

O=C(O)COc1ccccc1/C=C1/Oc2c(ccc(O)c2O)C1=O
IC50 [1]: 1800 nM

O=C1/C(=C\c2ccc(O)cc2)Oc2c1ccc(O)c2O
IC50 [1]: 15000 nM

B1: 3-phosphoshikimate 1-carboxyvinyltransferase (Escherichia coli K-12), P0A6D3 (protein)
chain: MESLTLQPIARVDGTINLPGSKSVSNRALLLAALAHGKTVLTNLLDSDDVRHMLNALTALGVSYTLSADRTRCEIIGNGGPLHAEGALELFLGNAGTAMRPLAAALCLGSNDIVLTGEPRMKERPIGHLVDALRLGGAKITYLEQENYPPLRLQGGFTGGNVDVDGSVSSQFLTALLMTAPLAPEDTVIRIKGDLVSKPYIDITLNLMKTFGVEIENQHYQQFVVKGGQSYQSPGTYLVEGDASSASYFLAAAAIKGGTVKVTGIGRNSMQGDIRFADVLEKMGATICWGDDYISCTRGELNAIDMDMNHIPDAAMTIATAALFAKGTTTLRNIYNWRVKETDRLFAMATELRKVGAEVEEGHDYIRITPPEKLNFAEIATYNDHRMAMCFSLVALSDTPVTILDPKCTAKTFPDYFEQLARISQAA
Km [6]: 30 µM
